The values that follow come from patent publication US20040223977A1, “Fusion peptide HIV vaccines” (City of Hope, priority 2003, published 2004).

Square brackets hold non-standard residues; d marks the D form. Peptide text beside a SMILES is read from it. Cha = N[C@@H](CC1CCCCC1)C(=O)O

For series [1], the system named is naïve HLA A2/K^b splenocytes. The series can be described thus: Lymphocyte proliferation assay (3H-thymidine incorporation). Format: cell-based, transgenic HLA A2/K^b mice. As to conditions: 48 hours culture, up to 1.6 μM ODN. As for the experimental part: A naïve transgenic A2/K^b spleen cell suspension was prepared as described for immunized splenocytes in Example 4. Following the removal of erythrocytes using red cell lysis buffer (0.15 M NH4Cl, 1 mM KHCO3, 0.1 mM Na2EDTA in distilled H2O) and subsequent washing, the concentration was adjusted to 4×10^6 cells/ml in complete in vitro stimulation (IVS) medium. One hundred microliters of splenocyte suspension was plated onto 96 well U-bottomed plate along with 100 μl of serially diluted CpG DNA in serum-free IVS medium. Concanavalin A (Sigma, St. Louis, Mo.) at a concentration of 5 μg/ml and unstimulated splenocytes were used as positive and negative controls respectively. […] Levels of TdR uptake were determined by liquid scintillation using a TriLux counter (Wallac, […]). Results were expressed as a stimulation index (SI) compared to unstimulated splenocytes.
In vitro analysis of the proliferative effect of two synthetic ODNs was conducted using naïve HLA A2/K^b splenocytes. […] Proliferative responses were determined by ^3H-thymidine incorporation using naïve transgenic A2/K^b splenocytes cultured with immunostimulatory ODN 1826 (SEQ ID NO:5; black bar) or control ODN sequence 1984 (SEQ ID NO:6; white bar) for 48 hours. […]
Background: Dividing cells build labelled thymidine or BrdU into new DNA.

In series [2] the test system is IV9 peptide-loaded T2 cells.
The test system of series [3] is T2 target cells pulsed with SEQ ID NO:10. The series can be described thus: Chromium release assay after immunization with SEQ ID NO:11, T2 targets pulsed with SEQ ID NO:10. Format: in vivo, HLA A2.1/Kb transgenic mice.

Turning to “5′ TCCAGGACTTCTCTCAGGTT 3′ (chemistry not given here) [ODN 1984]”, the “proliferative response (stimulation index)” value in series [1] is listed as “little or no proliferation”.

As for 5′ TCCATGACGTTCCTGACGTT 3′ [ODN 1826], the “proliferative response (stimulation index)” value in series [1] is given as “potent generalized proliferative response”. Besides, the “amount of CpG DNA per dose capable of augmenting the CTL response” value in series [2] (co-administered with fusion peptide (50 nmoles PADRE-IV9 elsewhere in the source), s.c., saline) is no more than 1 µg. In addition, in series [2] (with 50 nmoles PADRE-IV9, E:T of 6, up to 25 μg CpG DNA), the “plateau of CTL response” value is “no clear plateau”.

For `CC[C@H](C)[C@H](NC(=O)[C@H](C)NC(=O)[C@H](C)NC(=O)[C@H](C)NC(=O)[C@H](CCCCN)NC(=O)[C@H](CC(C)C)NC(=O)[C@@H](NC(=O)[C@H](Cc1c[nH]c2ccccc12)NC(=O)[C@H](C)NC(=O)[C@H](C)NC(=O)[C@@H](NC(=O)[C@H](CC1CCCCC1)NC(=O)[C@H](CCCCN)NC(=O)[C@H](C)N)C(C)C)[C@@H](C)O)C(=O)N[C@@H](CC(C)C)C(=O)N[C@@H](CCCCN)C(=O)N[C@@H](CCC(=O)O)C(=O)N1CCC[C@H]1C(=O)N[C@H](C(=O)N[C@@H](Cc1c[nH]cn1)C(=O)NCC(=O)N[C@H](C(=O)O)C(C)C)C(C)C` [PADRE-IV9, AKXVAAWTLKAAAILKEPVHGV] (H-AK[Cha]VAAWTLKAAAILKEPVHGV-OH), in series [2] (between 10-15 nmoles of peptide, E:T ratio of 25), the cytotoxicity entry was “approximately 15%”.

With “KSSAKXVAAWTLKAAASLYNTVATL [SEQ ID NO:11, PADRE-Gag77-85 fusion peptide]”, the “specific recognition (non-specific recognition subtracted)” value is on record as 41% in series [3] (25 nmoles with 25 μg ODN 1826 s.c., E:T 4); 62% in series [3] (25 nmoles with 25 μg ODN 1826 s.c., E:T 20); 49% in series [3] (25 nmoles with 25 μg ODN 1826 s.c., E:T 100); 9.3% in series [3] (50 nmoles with 25 μg ODN 1826 s.c., E:T 4); 30% in series [3] (50 nmoles with 25 μg ODN 1826 s.c., E:T 20); 33% in series [3] (50 nmoles with 25 μg ODN 1826 s.c., E:T 100).
